# From publication PMC5218480 (PLoS ONE, 2017)
# System: MV-4-11 cells
# Assay: Gene expression microarray analysis (Affymetrix PrimeView) and GSEA
# Assay type: cell-based, human
# Design: RFU PODN (11730768_x_at) / Fold change /veh PODN (11730768_x_at) / RFU LINC00158 (11744669_a_at) / Fold change /veh LINC00158 (11744669_a_at) / RFU DUSP10 (11751237_a_at) / Fold change /veh DUSP10 (11751237_a_at) / RFU ID3 (11757404_x_at) / Fold change /veh ID3 (11757404_x_at) / RFU PLEKHG5 (11737974_s_at) / Fold change /veh PLEKHG5 (11737974_s_at) / RFU LRRC4B (11730491_at) / Fold change /veh LRRC4B (11730491_at) / RFU GIMAP4 (11747438_a_at) / Fold change /veh GIMAP4 (11747438_a_at) / RFU KRT8 (11758183_x_at) / Fold change /veh KRT8 (11758183_x_at) / RFU CNN1 (11734310_a_at) / Fold change /veh CNN1 (11734310_a_at) / RFU VPS37D (11726825_at) / Fold change /veh VPS37D (11726825_at) / RFU C10orf10 (11716522_x_at) / Fold change /veh C10orf10 (11716522_x_at) / RFU KIR2DL2 /// KIR2DL4 /// KIR2DL5A /// KIR2DL5B /// KIR2DS1 /// KIR2DS2 /// KIR2DS3 /// KIR2DS4 /// KIR3DL3 /// KIR3DL3 /// KIR3DS1 (11738374_at) / Fold change /veh KIR2DL2 /// KIR2DL4 /// KIR2DL5A /// KIR2DL5B /// KIR2DS1 /// KIR2DS2 /// KIR2DS3 /// KIR2DS4 /// KIR3DL3 /// KIR3DL3 /// KIR3DS1 (11738374_at) / RFU C1QL1 (11718748_at) / Fold change /veh C1QL1 (11718748_at) / RFU TMPRSS4 (11747572_a_at) / Fold change /veh TMPRSS4 (11747572_a_at) / RFU HAMP (11756126_x_at) / Fold change /veh HAMP (11756126_x_at) / RFU RNFT2 (11725882_a_at) / Fold change /veh RNFT2 (11725882_a_at) / RFU NR4A2 (11747474_a_at) / Fold change /veh NR4A2 (11747474_a_at) / RFU ABCC12 (11746883_a_at) / Fold change /veh ABCC12 (11746883_a_at) / RFU TMEM136 (11760407_x_at) / Fold change /veh TMEM136 (11760407_x_at) / RFU CLDN22 /// WWC2 (11732394_at) / Fold change /veh CLDN22 /// WWC2 (11732394_at) / RFU HLA-DPB1 (11760878_x_at) / Fold change /veh HLA-DPB1 (11760878_x_at) / RFU SPINT1 (11716480_a_at) / Fold change /veh SPINT1 (11716480_a_at) / RFU GAP43 (11754022_s_at) / Fold change /veh GAP43 (11754022_s_at) / RFU A4GNT (11735810_at) / Fold change /veh A4GNT (11735810_at) / RFU PRB3 (11715151_x_at) / Fold change /veh PRB3 (11715151_x_at) / RFU TUBB4B (11761932_at) / Fold change /veh TUBB4B (11761932_at) / RFU CAPN14 (11732068_a_at) / Fold change /veh CAPN14 (11732068_a_at) / RFU TMCC2 (11721928_a_at) / Fold change /veh TMCC2 (11721928_a_at) / RFU IRGQ (11745062_a_at) / Fold change /veh IRGQ (11745062_a_at) / RFU FAM174B (11720279_a_at) / Fold change /veh FAM174B (11720279_a_at) / RFU TMPRSS4 (11748680_a_at) / Fold change /veh TMPRSS4 (11748680_a_at) / RFU FAM212B (11763350_a_at) / Fold change /veh FAM212B (11763350_a_at) / RFU PLEKHG5 (11743358_a_at) / Fold change /veh PLEKHG5 (11743358_a_at) / RFU ZSCAN30 (11745921_a_at) / Fold change /veh ZSCAN30 (11745921_a_at) / RFU CMKLR1 (11741424_a_at) / Fold change /veh CMKLR1 (11741424_a_at) / RFU LOC101060620 /// MAPK8IP1 (11723275_at) / Fold change /veh LOC101060620 /// MAPK8IP1 (11723275_at) / RFU SPTSSB (11747773_x_at) / Fold change /veh SPTSSB (11747773_x_at) / RFU PRSS12 (11739890_at) / Fold change /veh PRSS12 (11739890_at) / RFU BIN1 (11741810_x_at) / Fold change /veh BIN1 (11741810_x_at) / RFU WNT11 (11732464_a_at) / Fold change /veh WNT11 (11732464_a_at) / RFU C10orf10 (11716521_a_at) / Fold change /veh C10orf10 (11716521_a_at) / RFU C5orf56 (11738089_at) / Fold change /veh C5orf56 (11738089_at) / RFU CYB561 (11721691_x_at) / Fold change /veh CYB561 (11721691_x_at) / RFU ANKRD19P (11752326_a_at) / Fold change /veh ANKRD19P (11752326_a_at) / RFU OR2T12 /// OR2T33 /// OR2T8 (11738714_s_at) / Fold change /veh OR2T12 /// OR2T33 /// OR2T8 (11738714_s_at) / RFU VCAN (11748164_a_at) / Fold change /veh VCAN (11748164_a_at) / RFU JSRP1 (11732532_at) / Fold change /veh JSRP1 (11732532_at) / RFU KRTAP10-11 (11738290_x_at) / Fold change /veh KRTAP10-11 (11738290_x_at) / RFU MYO3A (11730013_a_at) / Fold change /veh MYO3A (11730013_a_at) / RFU EBF3 (11725865_a_at) / Fold change /veh EBF3 (11725865_a_at) / RFU CAMK2N1 (11719241_x_at) / Fold change /veh CAMK2N1 (11719241_x_at) / RFU C5orf56 (11738088_a_at) / Fold change /veh C5orf56 (11738088_a_at) / RFU OLFML3 (11715873_a_at) / Fold change /veh OLFML3 (11715873_a_at) / RFU LOC100653217 /// NTM (11731650_a_at) / Fold change /veh LOC100653217 /// NTM (11731650_a_at) / RFU MAPK11 (11762145_a_at) / Fold change /veh MAPK11 (11762145_a_at) / RFU FIZ1 (11724087_x_at) / Fold change /veh FIZ1 (11724087_x_at) / RFU OASL (11726364_x_at) / Fold change /veh OASL (11726364_x_at) / RFU SOX15 (11748057_x_at) / Fold change /veh SOX15 (11748057_x_at) / RFU CD79A (11719716_a_at) / Fold change /veh CD79A (11719716_a_at) / RFU HIST1H1D (11736915_at) / Fold change /veh HIST1H1D (11736915_at) / RFU CASKIN2 (11723855_a_at) / Fold change /veh CASKIN2 (11723855_a_at) / RFU LOC730098 (11760151_x_at) / Fold change /veh LOC730098 (11760151_x_at) / RFU OR4N2 (11742367_at) / Fold change /veh OR4N2 (11742367_at) / RFU PRRT2 (11749266_a_at) / Fold change /veh PRRT2 (11749266_a_at) / RFU SNX32 (11753110_a_at) / Fold change /veh SNX32 (11753110_a_at) / RFU CDHR5 (11726645_a_at) / Fold change /veh CDHR5 (11726645_a_at) / RFU RCAN1 (11760418_a_at) / Fold change /veh RCAN1 (11760418_a_at) / RFU FAM167A (11723789_a_at) / Fold change /veh FAM167A (11723789_a_at) / RFU FAM26E (11764081_at) / Fold change /veh FAM26E (11764081_at) / RFU ISYNA1 (11749810_s_at) / Fold change /veh ISYNA1 (11749810_s_at) / RFU ACY1 (11761880_at) / Fold change /veh ACY1 (11761880_at) / RFU 11764098_at / Fold change /veh 11764098_at / RFU SAMD14 (11745864_x_at) / Fold change /veh SAMD14 (11745864_x_at) / RFU NPB (11741838_a_at) / Fold change /veh NPB (11741838_a_at) / RFU TMPRSS6 (11731388_a_at) / Fold change /veh TMPRSS6 (11731388_a_at) / RFU KRTAP10-2 (11738614_at) / Fold change /veh KRTAP10-2 (11738614_at) / RFU ARHGAP8 /// PRR5-ARHGAP8 (11727945_x_at) / Fold change /veh ARHGAP8 /// PRR5-ARHGAP8 (11727945_x_at) / RFU KRTAP5-7 /// NADSYN1 (11734609_at) / Fold change /veh KRTAP5-7 /// NADSYN1 (11734609_at) / RFU RASL12 (11751679_a_at) / Fold change /veh RASL12 (11751679_a_at) / RFU CDKN2B (11736163_a_at) / Fold change /veh CDKN2B (11736163_a_at) / RFU PRF1 (11729649_at) / Fold change /veh PRF1 (11729649_at) / RFU, ZNF638 /// ZNF638-IT1 / Fold change vs veh, ZNF638 /// ZNF638-IT1 / RFU, PANK3 / Fold change vs veh, PANK3 / RFU, SH3YL1 / Fold change vs veh, SH3YL1 / RFU, ZEB2 / Fold change vs veh, ZEB2 / RFU, NRIP1 / Fold change vs veh, NRIP1 / RFU, PTTG1IP / Fold change vs veh, PTTG1IP / RFU, CAPN2 / Fold change vs veh, CAPN2 / RFU, MED14 / Fold change vs veh, MED14 / RFU, SNORA58 / Fold change vs veh, SNORA58 / RFU, C1orf63 / Fold change vs veh, C1orf63 / RFU, LRRFIP1 / Fold change vs veh, LRRFIP1 / RFU, NDUFAF7 / Fold change vs veh, NDUFAF7 / RFU, SLC12A2 / Fold change vs veh, SLC12A2 / RFU, IBTK / Fold change vs veh, IBTK / RFU, ESF1 / Fold change vs veh, ESF1 / Fold change vs veh, TMEM50B / RFU, TAOK1 / Fold change vs veh, TAOK1 / RFU, ACBD3 / Fold change vs veh, ACBD3 / RFU, TMA16 / Fold change vs veh, TMA16 / RFU, RWDD3 / Fold change vs veh, RWDD3 / RFU, BCAT1 / Fold change vs veh, BCAT1 / RFU, EDEM3 / Fold change vs veh, EDEM3 / RFU, TMEM33 / Fold change vs veh, TMEM33 / RFU, WDR75 / Fold change vs veh, WDR75 / RFU, AHCTF1 / Fold change vs veh, AHCTF1 / RFU, TFRC / Fold change vs veh, TFRC / RFU, ZDHHC17 / Fold change vs veh, ZDHHC17 / RFU, NOM1 / Fold change vs veh, NOM1 / RFU, ARL8B / Fold change vs veh, ARL8B / RFU, ZBTB11 / Fold change vs veh, ZBTB11 / RFU, TAMM41 / Fold change vs veh, TAMM41 / RFU, KIAA1704 /// LOC100996395 / Fold change vs veh, KIAA1704 /// LOC100996395 / RFU, ING1 / Fold change vs veh, ING1 / RFU, TRMT61B / Fold change vs veh, TRMT61B / RFU, FUBP3 / Fold change vs veh, FUBP3 / RFU, TP53 / Fold change vs veh, TP53 / RFU, TNKS2 / Fold change vs veh, TNKS2 / RFU, ZFP14 / Fold change vs veh, ZFP14 / RFU, ACTR2 / Fold change vs veh, ACTR2 / RFU, PPP3R1 / Fold change vs veh, PPP3R1 / RFU, PIK3R1 / Fold change vs veh, PIK3R1 / RFU, HNRNPA1 / Fold change vs veh, HNRNPA1 / RFU, RNF170 / Fold change vs veh, RNF170 / RFU, ZNF28 / Fold change vs veh, ZNF28 / RFU, RNGTT / Fold change vs veh, RNGTT / RFU, OGT / Fold change vs veh, OGT / RFU, BRD1 / Fold change vs veh, BRD1 / RFU, MARS / Fold change vs veh, MARS / RFU, ZNF655 / Fold change vs veh, ZNF655 / RFU, FAHD1 / Fold change vs veh, FAHD1 / RFU, BDP1 / Fold change vs veh, BDP1 / RFU, LRRCC1 / Fold change vs veh, LRRCC1 / RFU, ARID1A / Fold change vs veh, ARID1A / RFU, ZNF146 / Fold change vs veh, ZNF146 / RFU, ZNF330 / Fold change vs veh, ZNF330 / RFU, GPN3 / Fold change vs veh, GPN3 / RFU, C9orf123 / Fold change vs veh, C9orf123 / RFU, N4BP2L2 / Fold change vs veh, N4BP2L2 / RFU, ARFIP1 / Fold change vs veh, ARFIP1 / RFU, FAM179B / Fold change vs veh, FAM179B / RFU, BCL10 / Fold change vs veh, BCL10 / RFU, UHRF1BP1L / Fold change vs veh, UHRF1BP1L / RFU, BET1 / Fold change vs veh, BET1 / RFU, CNOT2 / Fold change vs veh, CNOT2 / RFU, ZNF268 / Fold change vs veh, ZNF268 / Fold change vs veh, ZNF507 / RFU, DGCR2 / Fold change vs veh, DGCR2 / RFU, WDSUB1 / Fold change vs veh, WDSUB1 / Fold change vs veh, HSP90B1 /// MIR3652 / RFU, ADSS / Fold change vs veh, ADSS / RFU, GK / Fold change vs veh, GK / RFU, ZNF148 / Fold change vs veh, ZNF148 / RFU, TAF9 / Fold change vs veh, TAF9 / RFU, SLC1A5 / Fold change vs veh, SLC1A5 / RFU, SLMO2 / Fold change vs veh, SLMO2 / RFU, ABCC4 / Fold change vs veh, ABCC4 / RFU, LOC101060439 /// RAP1B / Fold change vs veh, LOC101060439 /// RAP1B / RFU, RFX7 / Fold change vs veh, RFX7 / RFU, GTPBP10 / Fold change vs veh, GTPBP10 / RFU, CNEP1R1 / Fold change vs veh, CNEP1R1 / RFU, BIVM-ERCC5 /// ERCC5 / Fold change vs veh, BIVM-ERCC5 /// ERCC5 / RFU, ILF3 / Fold change vs veh, ILF3 / RFU 11762660_at / Fold change /veh 11762660_at / RFU VCAN (11757783_s_at) / Fold change /veh VCAN (11757783_s_at) / RFU DDX43 (11728927_at) / Fold change /veh DDX43 (11728927_at) / RFU KRT8 (11758188_x_at) / Fold change /veh KRT8 (11758188_x_at) / RFU NKD1 (11759106_at) / Fold change /veh NKD1 (11759106_at) / RFU SRD5A1 (11742802_a_at) / Fold change /veh SRD5A1 (11742802_a_at) / RFU TPSAB1 /// TPSB2 (11721975_s_at) / Fold change /veh TPSAB1 /// TPSB2 (11721975_s_at) / RFU GSTM3 (11746129_a_at) / Fold change /veh GSTM3 (11746129_a_at) / RFU IL23R (11737362_x_at) / Fold change /veh IL23R (11737362_x_at) / RFU TMEM51 (11727254_a_at) / Fold change /veh TMEM51 (11727254_a_at) / RFU PIWIL2 (11732686_x_at) / Fold change /veh PIWIL2 (11732686_x_at) / RFU ORM1 (11744905_x_at) / Fold change /veh ORM1 (11744905_x_at) / RFU CCDC152 (11743942_at) / Fold change /veh CCDC152 (11743942_at) / RFU ECM1 (11717891_a_at) / Fold change /veh ECM1 (11717891_a_at) / RFU IL23R (11748794_a_at) / Fold change /veh IL23R (11748794_a_at) / RFU TNFAIP8L3 (11732012_x_at) / Fold change /veh TNFAIP8L3 (11732012_x_at) / RFU MBOAT4 (11741988_at) / Fold change /veh MBOAT4 (11741988_at) / RFU 11764193_at / Fold change /veh 11764193_at / RFU TMEM53 (11763286_at) / Fold change /veh TMEM53 (11763286_at) / RFU MAGEB2 (11727129_at) / Fold change /veh MAGEB2 (11727129_at) / RFU TMEM200A (11744735_a_at) / Fold change /veh TMEM200A (11744735_a_at) / RFU CCDC152 (11751479_a_at) / Fold change /veh CCDC152 (11751479_a_at) / RFU FAM211A (11726209_a_at) / Fold change /veh FAM211A (11726209_a_at) / RFU RGS16 (11746705_a_at) / Fold change /veh RGS16 (11746705_a_at) / RFU VCAN (11755009_s_at) / Fold change /veh VCAN (11755009_s_at) / RFU RHOB (11743442_s_at) / Fold change /veh RHOB (11743442_s_at) / RFU RGS16 (11720943_a_at) / Fold change /veh RGS16 (11720943_a_at) / RFU RGS16 (11720944_at) / Fold change /veh RGS16 (11720944_at) / RFU, VPS4B / Fold change vs veh, VPS4B / RFU, CREB1 / Fold change vs veh, CREB1 / RFU, DNAJC13 / Fold change vs veh, DNAJC13 / RFU, GNAQ / Fold change vs veh, GNAQ / RFU, CDK5R1 / Fold change vs veh, CDK5R1 / RFU, ZRANB3 / Fold change vs veh, ZRANB3 / RFU, CUL4A / Fold change vs veh, CUL4A / RFU, CCNY / Fold change vs veh, CCNY / RFU, UFL1 / Fold change vs veh, UFL1 / RFU, COG3 / Fold change vs veh, COG3 / RFU, DIAPH2 / Fold change vs veh, DIAPH2 / RFU, SKA2 / Fold change vs veh, SKA2 / RFU, AFF3 / Fold change vs veh, AFF3 / RFU, LMF1 / Fold change vs veh, LMF1 / RFU, IPO11 / Fold change vs veh, IPO11 / RFU, DFFB / Fold change vs veh, DFFB / RFU, FOXP1 / Fold change vs veh, FOXP1 / RFU, CARD8 / Fold change vs veh, CARD8 / RFU, STRN3 / Fold change vs veh, STRN3 / RFU, ADK / Fold change vs veh, ADK / RFU, RASSF2 / Fold change vs veh, RASSF2 / RFU, WIPF1 / Fold change vs veh, WIPF1 / RFU, LARP1B / Fold change vs veh, LARP1B / RFU, RASA1 / Fold change vs veh, RASA1 / RFU, RB1 / Fold change vs veh, RB1 / RFU, PPFIA1 / Fold change vs veh, PPFIA1 / RFU, MAT2A / Fold change vs veh, MAT2A / RFU, CCT5 / Fold change vs veh, CCT5 / RFU, WDR92 / Fold change vs veh, WDR92 / RFU, CUX1 / Fold change vs veh, CUX1 / RFU, TTC7A / Fold change vs veh, TTC7A / RFU, TMEM135 / Fold change vs veh, TMEM135 / RFU, DEPTOR / Fold change vs veh, DEPTOR / RFU, CPM / Fold change vs veh, CPM / RFU, DNAJB6 / Fold change vs veh, DNAJB6 / RFU, CACNA2D3 / Fold change vs veh, CACNA2D3 / RFU, DTX4 / Fold change vs veh, DTX4 / RFU, TFCP2 / Fold change vs veh, TFCP2 / RFU, GMCL1 /// GMCL1P1 / Fold change vs veh, GMCL1 /// GMCL1P1 / RFU, AEBP2 / Fold change vs veh, AEBP2 / RFU, SNHG1 /// SNORD22 /// SNORD25 /// SNORD26 /// SNORD27 /// SNORD28 /// SNORD29 /// SNORD31 / Fold change vs veh, SNHG1 /// SNORD22 /// SNORD25 /// SNORD26 /// SNORD27 /// SNORD28 /// SNORD29 /// SNORD31 / Fold change (Aza/veh), C12orf56 (ProbeSet 11735607_a_at) / Fold change (ACY-1035/veh), C12orf56 (ProbeSet 11735607_a_at) / Fold change (Aza/veh), FGFR1OP (ProbeSet 11751329_s_at) / Fold change (ACY-1035/veh), FGFR1OP (ProbeSet 11751329_s_at) / Fold change (Aza/veh), VPS36 (ProbeSet 11739960_a_at) / Fold change (ACY-1035/veh), VPS36 (ProbeSet 11739960_a_at) / RFU SYPL1 (11715823_x_at) / Fold change /veh SYPL1 (11715823_x_at) / RFU IGFBP7 (11715501_s_at) / Fold change /veh IGFBP7 (11715501_s_at) / RFU REEP3 (11722064_at) / Fold change /veh REEP3 (11722064_at) / RFU IGLL1 (11728026_x_at) / Fold change /veh IGLL1 (11728026_x_at): dose or concentration left out as unconfirmed
# Details: MV-4-11 cells, 48 hours
smiles,measurement,value
Nc1ncn([C@@H]2O[C@H](CO)[C@@H](O)[C@H]2O)c(=O)n1 [azacitidine],Fold change /veh NR4A2 (11747474_a_at),0.97
